# Measured values reported in ChEMBL document CHEMBL5356967, “Design, synthesis, evaluation and optimization of novel azole analogues as potent antifungal agents” (Bioorg Med Chem, 2024).
# The source made the active and inactive calls. No cut-off for these calls is given here.
# How the values were obtained:
# Trichophyton rubrum = experiment: Antifungal activity against Trichophyton rubrum 0501124 assessed as inhibition of fungal growth incubated for 24 hrs by broth microdilution method; assay type: functional
# Candida albicans [1] = experiment: Potency index, ratio of Ketoconazole MIC80 to test compound MIC80 for antifungal activity against Candida albicans Y0109 assessed as inhibition of fungal growth incubated for 24 hrs by broth microdilution method; assay type: functional
# Candida albicans [2] = experiment: Antifungal activity against fluconazole-resistant Candida albicans 904 assessed as inhibition of fungal growth incubated for 24 hrs by broth microdilution method; assay type: functional
# Candida albicans [3] = experiment: Antifungal activity against Candida albicans SC5314 assessed as inhibition of fungal growth incubated for 24 hrs by broth microdilution method; assay type: functional
# Candida albicans [4] = experiment: Antifungal activity against Candida albicans Y0109 assessed as inhibition of fungal growth incubated for 24 hrs by broth microdilution method; assay type: functional
# Nannizzia gypsea = experiment: Antifungal activity against Microsporum gypseum 0310388 assessed as inhibition of fungal growth incubated for 24 hrs by broth microdilution method; assay type: functional
# Cryptococcus neoformans [5] = experiment: Antifungal activity against Cryptococcus neoformans ATCCBLS108 assessed as inhibition of fungal growth incubated for 72 hrs by broth microdilution method; assay type: functional
# Candida albicans [6] = experiment: Potency index, ratio of Fluconazole MIC80 to test compound MIC80 for antifungal activity against Candida albicans Y0109 assessed as inhibition of fungal growth incubated for 24 hrs by broth microdilution method; assay type: functional
# Candida albicans [7] = experiment: Potency index, ratio of Fluconazole MIC80 to test compound MIC80 for antifungal activity against Candida albicans SC5314 assessed as inhibition of fungal growth incubated for 24 hrs by broth microdilution method; assay type: functional
# Candida tropicalis [8] = experiment: Antifungal activity against Candida tropicalis 0370354 assessed as inhibition of fungal growth incubated for 24 hrs by broth microdilution method; assay type: functional
# Candida albicans [9] = experiment: Potency index, ratio of Ketoconazole MIC80 to test compound MIC80 for antifungal activity against Candida albicans SC5314 assessed as inhibition of fungal growth incubated for 24 hrs by broth microdilution method; assay type: functional
# Aspergillus fumigatus = experiment: Antifungal activity against Aspergillus fumigatus 0504656 assessed as inhibition of fungal growth incubated for 48 hrs by broth microdilution method; assay type: functional
# Candida parapsilosis [10] = experiment: Antifungal activity against Candida parapsilosis 0306392 assessed as inhibition of fungal growth incubated for 24 hrs by broth microdilution method; assay type: functional; details: Lodderomyces parapsilosis
# Candida albicans [11] = experiment: Antifungal activity against fluconazole-resistant Candida albicans 901 assessed as inhibition of fungal growth incubated for 24 hrs by broth microdilution method; assay type: functional
# NIH3T3 = experiment: Cytotoxicity against mouse NIH/3T3 cells assessed as reduction in cell viability at below 16 microg/ml incubated for 24 hrs by CCK-8 assay; assay type: toxicity, cell-based; details: nih3t3, 24 h, dose < 16 µg/ml
# Candida parapsilosis [12] = experiment: Potency index, ratio of Itraconazole MIC80 to test compound MIC80 for antifungal activity against Candida parapsilosis 0306392 assessed as inhibition of fungal growth incubated for 24 hrs by broth microdilution method; assay type: functional
# Candida parapsilosis [13] = experiment: Potency index, ratio of Ketoconazole MIC80 to test compound MIC80 for antifungal activity against Candida parapsilosis 0306392 assessed as inhibition of fungal growth incubated for 24 hrs by broth microdilution method; assay type: functional
# Candida parapsilosis [14] = experiment: Potency index, ratio of Fluconazole MIC80 to test compound MIC80 for antifungal activity against Candida parapsilosis 0306392 assessed as inhibition of fungal growth incubated for 24 hrs by broth microdilution method; assay type: functional
# Cryptococcus neoformans [15] = experiment: Antifungal activity against Cryptococcus neoformans ATCCBLS108 assessed as inhibition of fungal growth at 4 ug/ml incubated for 48 hrs by spot assay; assay type: functional, organism-based; details: dose 4.0 µg/ml
# Candida tropicalis [16] = experiment: Antifungal activity against Candida tropicalis 0370354 assessed as inhibition of fungal growth at 4 ug/ml incubated for 48 hrs by spot assay; assay type: functional, organism-based; details: dose 4.0 µg/ml
# Candida albicans [17] = experiment: Antifungal activity against fluconazole-resistant Candida albicans 904 assessed as inhibition of fungal growth at 4 ug/ml incubated for 48 hrs by spot assay; assay type: functional, organism-based; details: dose 4.0 µg/ml
# Candida albicans [18] = experiment: Antifungal activity against Candida albicans SC5314 assessed as inhibition of fungal growth at 4 ug/ml incubated for 48 hrs by spot assay; assay type: functional, organism-based; details: dose 4.0 µg/ml
# Candida parapsilosis [19] = experiment: Antifungal activity against Candida parapsilosis 0306392 assessed as inhibition of fungal growth at 4 ug/ml incubated for 48 hrs by spot assay; assay type: functional, organism-based; details: dose 4.0 µg/ml
# Candida albicans [20] = experiment: Antifungal activity against fluconazole-resistant Candida albicans 901 assessed as inhibition of fungal growth at 4 ug/ml incubated for 48 hrs by spot assay; assay type: functional, organism-based; details: dose 4.0 µg/ml
SMILES,MIC80 (Trichophyton rubrum),Ratio (Candida albicans [1]),MIC80 (Candida albicans [2]),MIC80 (Candida albicans [3]),MIC80 (Candida albicans [4]),MIC80 (Nannizzia gypsea),MIC80 (Cryptococcus neoformans [5]),Ratio (Candida albicans [6]),Ratio (Candida albicans [7]),MIC80 (Candida tropicalis [8]),Ratio (Candida albicans [9]),MIC80 (Aspergillus fumigatus),MIC80 (Candida parapsilosis [10]),MIC80 (Candida albicans [11]),Activity (NIH3T3),Ratio (Candida parapsilosis [12]),Ratio (Candida parapsilosis [13]),Ratio (Candida parapsilosis [14]),Activity (Cryptococcus neoformans [15]),Activity (Candida tropicalis [16]),other results
OCCC1CCN(CCc2cn(C[C@H]3CO[C@](Cn4ccnc4)(c4ccc(O)cc4F)O3)nn2)CC1 (mixture of isomers),0.125 µg/mL,64,16 µg/mL,0.016 µg/mL,0.016 µg/mL,0.25 µg/mL,0.125 µg/mL,16,16,1 µg/mL,64,> 64 µg/mL,0.125 µg/mL,2 µg/mL,Non-Toxic,–,–,–,–,–,–
Oc1ccc([C@@]2(Cn3ccnc3)OC[C@H](Cn3cc(CCN4CCCCC4)nn3)O2)c(F)c1 (mixture of isomers),0.25 µg/mL,–,–,0.063 µg/mL,0.063 µg/mL,0.25 µg/mL,0.063 µg/mL,–,–,0.125 µg/mL,–,> 64 µg/mL,0.063 µg/mL,–,–,4,32,16,–,–,–
OCC1CCN(CCc2cn(C[C@H]3CO[C@](Cn4ccnc4)(c4ccc(O)cc4F)O3)nn2)CC1 (mixture of isomers),0.5 µg/mL,64,8 µg/mL,0.016 µg/mL,0.016 µg/mL,0.25 µg/mL,0.063 µg/mL,16,16,0.063 µg/mL,64,16 µg/mL,0.063 µg/mL,2 µg/mL,Non-Toxic,–,–,–,Active,Active,Activity (Candida albicans [17]): Active; Activity (Candida albicans [18]): Active; Activity (Candida parapsilosis [19]): Active; Activity (Candida albicans [20]): Active
Oc1ccc([C@@]2(Cn3ccnc3)OC[C@H](Cn3cc(CCN4CCOCC4)nn3)O2)c(F)c1 (mixture of isomers),0.5 µg/mL,–,–,0.063 µg/mL,0.063 µg/mL,0.25 µg/mL,0.063 µg/mL,–,–,0.125 µg/mL,–,> 64 µg/mL,0.125 µg/mL,–,–,4,32,16,–,–,–
OC(Cn1cncn1)(Cn1cncn1)c1ccc(F)cc1F [FLUCONAZOLE],4 µg/mL,–,> 64 µg/mL,0.25 µg/mL,0.25 µg/mL,1 µg/mL,1 µg/mL,–,–,16 µg/mL,–,> 64 µg/mL,1 µg/mL,> 64 µg/mL,–,–,–,–,Active,Active,Activity (Candida albicans [17]): inactive; Activity (Candida albicans [18]): Active; Activity (Candida parapsilosis [19]): Active; Activity (Candida albicans [20]): inactive
